Values joined by “and” are separate entries in the source; they are usually repeats but may differ in a detail not shown here. Equal entries are not always repeated. Active and inactive are the calls of the source.
Legend:
[1] = inhibitors of intracellular T. cruzi replication, confirmation, NIH3T3 host cells, beta-gal luminescence (AID 2044); format: functional, cell-based;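 note: intracellular parasites grown in NIH/3T3 mouse fibroblasts as host cells; luminescent beta-galactosidase reporter signal from transgenic T. cruzi replicating inside host cells; inhibitors lower the luminescence signal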
[2] = cytotoxicity toward NIH3T3 fibroblasts, dose response, counter-screen, cell-based, ATP luminescence, mouse fibroblasts (AID 2010); format: functional;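 note: cells exposed to compound for about 90 hours before reading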
[3] = molecular target: Cytochrome P450 3A4 (Homo sapiens, UniProt P08684);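 note: CYP3A4 tested as one member of a cytochrome P450 panel screen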
[4] = Luminescence Cell-Based Dose Response HTS to Identify Inhibitors of 5'UTR Stem-Loop Driven Prion Protein mRNA Translation in H4 Neuroglioblastoma Cells. [Related pubchem assays: 1827 (Project Summary), 1813 (Primary HTS)]; format: functional
[5] = inhibitors of SNCA 5'UTR-driven reporter translation, confirmation, H4 neuroglioma cells, luminescence (AID 1988); format: functional, cell-based
[6] = inhibitors of firefly luciferase expression or activity, dose response, H4 neuroglioma cells, luminescence (AID 1990); format: functional, cell-based
[7] = test system: Streptococcus; assay: Group A Streptococcus viability loss, dose response, counter-screen for streptokinase expression inhibitor project, luminescence, BacTiterGlo (AID 1915); format: functional, organism-based;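 note: potency for reduction of bacterial viability or growth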
[8] = test system: Streptococcus sp. 'group A'; assay: growth inhibition of control SK(-) GAS strain, dose response, counter-screen for streptokinase expression inhibitor project, luminescence, kanamycin, BacTiterGlo, confirmation (AID 1900); format: functional, organism-based; settings: read-out: EC50
[9] = Luminescence Cell-Based Dose Retest to Confirm Inhibitors of Cancer Stem Cells. [Related pubchem assays (depositor defined):AID2717, AID2721]; format: functional, Homo sapiens; settings: Homo sapiens
[10] = molecular target: Cytochrome P450 2C19 (Homo sapiens, UniProt P33261); assay: Cytochrome panel assay with activity outcomes. Panel member name: p450-cyp2c19 Compounds with AC50 equal or less than 10 uM are considered active; format: functional
[11] = molecular target: T1, Rac GTPase-activating protein 1 (Homo sapiens, UniProt Q9H0H5); assay: MgcRacGAP GTPase-activating activity inhibitors, confirmation, biochemical, ADP Hunter fluorescence, primary and confirmatory (AID 624330); format: functional
T1 sequence (Q9H0H5 whole entry): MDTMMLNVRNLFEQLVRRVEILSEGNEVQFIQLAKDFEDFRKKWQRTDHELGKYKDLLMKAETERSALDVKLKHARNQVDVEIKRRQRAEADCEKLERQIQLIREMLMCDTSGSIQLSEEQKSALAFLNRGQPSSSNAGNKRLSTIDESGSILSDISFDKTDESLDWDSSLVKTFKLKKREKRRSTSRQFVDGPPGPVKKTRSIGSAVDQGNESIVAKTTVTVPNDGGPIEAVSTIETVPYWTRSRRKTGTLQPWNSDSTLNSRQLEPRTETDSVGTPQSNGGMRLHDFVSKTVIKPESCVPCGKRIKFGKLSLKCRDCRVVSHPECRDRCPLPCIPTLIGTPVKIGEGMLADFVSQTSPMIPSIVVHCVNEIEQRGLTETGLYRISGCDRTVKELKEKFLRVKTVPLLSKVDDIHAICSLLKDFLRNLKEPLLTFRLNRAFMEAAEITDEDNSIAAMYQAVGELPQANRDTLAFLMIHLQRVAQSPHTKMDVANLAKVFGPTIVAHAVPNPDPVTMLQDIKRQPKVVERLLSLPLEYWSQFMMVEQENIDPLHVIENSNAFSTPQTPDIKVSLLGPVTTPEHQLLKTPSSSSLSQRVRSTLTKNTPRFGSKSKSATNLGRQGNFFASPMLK

Chain of Cytochrome P450 3A4 (P08684 whole entry): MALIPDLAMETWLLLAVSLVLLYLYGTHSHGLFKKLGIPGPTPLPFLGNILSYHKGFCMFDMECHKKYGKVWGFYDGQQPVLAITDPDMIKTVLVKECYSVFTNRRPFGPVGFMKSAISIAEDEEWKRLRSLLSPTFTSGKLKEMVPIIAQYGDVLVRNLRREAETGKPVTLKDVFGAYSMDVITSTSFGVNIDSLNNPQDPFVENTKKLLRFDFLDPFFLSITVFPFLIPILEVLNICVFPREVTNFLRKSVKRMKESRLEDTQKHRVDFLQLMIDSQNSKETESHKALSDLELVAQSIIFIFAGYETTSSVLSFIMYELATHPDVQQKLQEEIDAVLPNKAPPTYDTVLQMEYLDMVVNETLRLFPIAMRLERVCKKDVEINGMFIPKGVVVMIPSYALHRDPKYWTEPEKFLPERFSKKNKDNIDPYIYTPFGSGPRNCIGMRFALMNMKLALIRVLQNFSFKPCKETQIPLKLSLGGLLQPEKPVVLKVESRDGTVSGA
Chain of Cytochrome P450 2C19 (P33261 whole entry): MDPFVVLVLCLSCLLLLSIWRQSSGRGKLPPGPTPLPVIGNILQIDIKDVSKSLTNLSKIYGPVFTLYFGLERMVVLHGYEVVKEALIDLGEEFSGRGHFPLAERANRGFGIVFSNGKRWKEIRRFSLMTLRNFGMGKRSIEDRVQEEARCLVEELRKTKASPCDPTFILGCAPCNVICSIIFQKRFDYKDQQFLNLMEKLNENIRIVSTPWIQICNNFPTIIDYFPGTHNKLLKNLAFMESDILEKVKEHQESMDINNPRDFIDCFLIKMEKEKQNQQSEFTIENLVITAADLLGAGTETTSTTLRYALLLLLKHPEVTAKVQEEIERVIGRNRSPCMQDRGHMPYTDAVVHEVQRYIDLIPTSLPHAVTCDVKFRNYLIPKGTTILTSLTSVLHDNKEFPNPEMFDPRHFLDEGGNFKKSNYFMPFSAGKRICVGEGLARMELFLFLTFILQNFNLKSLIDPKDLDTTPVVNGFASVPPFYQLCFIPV

Compound: CN(C)c1ccc(C2CNC(c3ccc(Cl)c([N+](=O)[O-])c3)c3[nH]c4ccccc4c32)cc1 (stereo not given)
- EC50 [1]: 1.88 µM (active)
- EC50 [2]: > 60 µM (not active)

Compound: CCC(C)NS(=O)(=O)c1ccc(S(=O)(=O)N(CCc2ccc(OC)c(OC)c2)Cc2cccs2)cc1 (stereo not given)
- EC50 [1]: 1.72 µM (active)
- EC50 [2]: > 60 µM (not active)

Compound: COCCNc1nc(-c2ccccc2CN(C)C)nc2ccccc12
- AC50 [3]: 15.8 µM (inconclusive)

Compound: CCN(CC)c1nc(Nc2ccc(Cl)cc2)nc(OCC#N)n1
- EC50 [4]: 14.6 µM (active)
- EC50 [5]: 16 µM (active)
- EC50 [6]: 15 µM (active)

Compound: CCOC(=O)Nc1ccc(OCc2nnc3c4ccccc4c(C)nn23)cc1
- EC50 [7]: 0.676 µM (active)
- EC50 [8]: < 0.06 µM (active)

Compound: CC1(C)Cc2c(sc3c2c(=N)n(Cc2ccco2)c(=O)n3Cc2ccc(Cl)cc2)CO1
- EC50 [4]: > 120 µM (not active)
- EC50 [5]: 13.8 µM (active)
- EC50 [6]: 14.2 µM (active)

Compound: Cc1ccc(C)c(NC(S)=NN=C(S)Nc2ccc(C(C)C)cc2)c1
- EC50 [1]: 2.69 µM (active)
- EC50 [2]: > 60 µM (not active)

Compound: O=C(NCc1ccco1)c1cc(-c2ccc3c(c2)OCO3)on1
- AC50 [9]: 1.14 µM (active)

Compound: N#CCSc1nc2c(c(=O)n1Cc1ccco1)C1(CCCC1)Cc1ccccc1-2
- AC50 [9]: 0.686 µM (active)

Compound: COC(=O)Nc1nc2cc(SC(C)C)ccc2[nH]1
- AC50 ([10]; read-out: AC50): 10 µM (inconclusive)

Compound: O=c1c(-c2cccc(F)c2)nc2cncnc2n1Cc1ccccc1
- AC50 [3]: 10 µM (inconclusive)

Compound: CC(C)CN1CC[C@@]2(CCCN(C(=O)c3ccco3)C2)C1
- AC50 [3]: 12.6 µM (inconclusive)

Compound: COc1ccc(Oc2ncc3nc(-c4ccc(Cl)cc4)c(=O)n(C)c3n2)cc1
- AC50 [3]: 5.01 µM (inconclusive)

Compound: O=C1NC[C@@H](Cc2cccc3ccccc23)N(CC2(c3ccccc3)CC2)C1=O
- EC50 [4]: > 120 µM (not active)
- EC50 [5]: > 120 µM (not active)
- EC50 [6]: > 120 µM (not active)

Compound: Cn1c(=O)c2c(nc(NCCNc3nc4c(c(=O)n(C)c(=O)n4C)n3C)n2C)n(C)c1=O
- AC50 [10]: inconclusive

Compound: Cc1nn(S(=O)(=O)c2ccc([N+](=O)[O-])cc2)c(C)c1Sc1ccccc1
- EC50 [1]: 1.16 µM (active)
- EC50 [2]: > 60 µM (not active)

Compound: Cc1ccc2nc(O)c(C(c3nnnn3C(C)(C)C)N(Cc3ccco3)CC3CCCO3)cc2c1 (stereo not given)
- EC50 [1]: 3.14 µM (active)
- EC50 [2]: > 60 µM (not active)

Compound: NC(=O)CC(NC(=O)Cc1cccc2ccccc12)c1ccc(NCc2ccc(F)cc2)c([N+](=O)[O-])c1 (stereo not given)
- AC50 [9]: 5.46 µM (active)

Compound: COCCn1c(=O)c(-c2cccc(Cl)c2)nc2cncnc21
- AC50 [3]: 15.8 µM (inconclusive)

Compound: N#CCCn1c(=O)c(CCc2ccccc2)nc2cnc(Nc3ccccc3)nc21
- AC50 [3]: 1 µM (inconclusive)

Compound: Cc1c(-c2nc(N)nc(Nc3ccc(F)cc3)n2)oc2ccccc12
- EC50 [1]: 2.76 µM (active)
- EC50 [2]: 13.4 µM (active)

Compound: COc1ccc(C(=O)N2CCN(C3CCN(Cc4ccccc4)CC3)CC2)cc1OC
- IC50 [11]: 93.1 µM (active)

Compound: CCN1CCN(CCOc2cccc(Oc3ccccc3)c2)CC1
- IC50 [11]: 106 µM (active)

Compound: Oc1nc2ccc(Cl)cc2c(-c2ccccc2)c1SC(=S)N1CCOCC1
- EC50 [7]: 1.3 µM (active)
- EC50 [8]: 0.827 µM (active)

Compound: Nc1ccc2[nH]c(-c3cccnc3)nc2c1
- IC50 [11]: 155 µM (active)

Compound: CCCCN(CC)CCCNC(=O)c1cn(-c2ccc(OC)cc2)c(=O)c2ccccc12
- EC50 [1]: 0.496 µM (active)
- EC50 [2]: > 60 µM (not active)

Compound: O=C(c1ccco1)N1CCC2(CC1)CN(c1cccc(-c3ccccc3)c1)C2
- AC50 ([10]; read-out: AC50): 3.98 µM (inconclusive)

Compound: Nc1ccc(Oc2ccccc2-c2ccccc2)cc1
- EC50 [4]: 9.75 µM (active)
- EC50 [5]: 5.17 µM (active)
- EC50 [6]: 2.08 µM (active)

Compound: O=C(CSC(=S)N1CCCCC1)c1ccccc1
- EC50 [4]: > 60 µM (not active)
- EC50 [5]: 10.8 µM (active)

Compound: C/C(CCC(=O)OC[C@@H]1O[C@H](C#Cc2ccccc2)C=C[C@@H]1Oc1ccc(C)cc1)=N/OC[C@@H](O)[C@H]1O[C@H]2OC(C)(C)O[C@H]2[C@@H]1O
- AC50 ([10]; read-out: AC50): 6.31 µM (inconclusive)

Compound: C=C1SC(Nc2c(C)cccc2C)=NC12CCCCC2
- EC50 [1]: 0.795 µM (active)
- EC50 [2]: 4.83 µM (active)

Compound: CCc1c(C)c(C#N)c2nc3ccccc3n2c1N1CCN(c2cc(C)ccn2)CC1
- AC50 ([10]; read-out: AC50): 10 µM (inconclusive)

Compound: COc1cccc(CN2CCCC(CNC(=O)c3ccc(F)cc3)C2)c1OC (stereo not given)
- EC50 [1]: 0.704 µM (active)
- EC50 [2]: > 60 µM (inconclusive)

Compound: COc1ccc(CN2CCN(Cc3ccccc3F)CC2)cc1OC
- IC50 [11]: 85.5 µM (active)

Compound: COc1ccc(OC)c(C(c2nnnn2C(C)(C)C)N2CCc3ccccc3C2)c1 (stereo not given)
- EC50 [1]: 2.77 µM (active)
- EC50 [2]: 5.8 µM (active)

Compound: O=c1c2c3c(sc2nc(NCCO)n1Cc1ccco1)CCCCC3
- AC50 [9]: 1.8 µM (active)

Compound: CO/C(O)=C1/C(C)=Nc2ncnn2C1c1cccnc1 (stereo not given)
- AC50 [3]: 39.8 µM (inconclusive)

Compound: CCOc1ccccc1-c1nc(-c2ccc(NC(=O)Cc3ccccc3OC)cc2)no1
- EC50 [1]: 1.21 µM (active)
- EC50 [2]: 10.2 µM (active)

Compound: O=C(CSc1[nH]cnc2ncnc1-2)Nc1nnc(SCc2ccc(Cl)c(Cl)c2)s1
- AC50 [9]: 7.23 µM (active)

Compound: Cc1cc2c(c(=O)n1C1CC1)C(c1cccc(Cl)c1)C(C#N)=C(N)O2 (stereo not given)
- EC50 [4]: > 120 µM (not active)
- EC50 [5]: > 120 µM (not active)
- EC50 [6]: > 120 µM (not active)

Compound: Cc1cc(C)cc(NC(=O)CSc2nc3c(oc4ccccc43)c(=O)n2-c2ccccc2)c1
- EC50 [1]: 1.26 µM (active)
- EC50 [2]: > 60 µM (inconclusive)

Compound: COCC(=O)N1CCC[C@@]2(CCN(C(=O)Nc3cccc(F)c3)C2)C1
- AC50 [3]: 25.1 µM (inconclusive)

Compound: COc1ccc(OC(=O)COc2cccc(C)c2)cc1
- IC50 [11]: 52.9 µM (active)

Compound: COc1ccc(-n2nc(C(=O)NCC(=O)N3CCN(Cc4ccc5c(c4)OCO5)CC3)c3ccccc3c2=O)cc1OC
- EC50 [4]: > 120 µM (not active)
- EC50 [5]: > 120 µM (not active)
- EC50 [6]: 21.3 µM (active)

Compound: COc1ccc(C(=O)C[n+]2nc(CNc3ccc(Br)cc3)n3c2CCCCC3)cc1
- EC50 [1]: 0.898 µM (active)
- EC50 [2]: > 60 µM (not active)

Compound: O=C(NC1CCCCC1)Oc1cc2oc(=O)sc2cc1Br
- EC50 [4]: > 120 µM (not active)
- EC50 [5]: > 120 µM (not active)
- EC50 [6]: > 120 µM (not active)

Compound: CCOc1ccc(N(C)Cc2cc(=O)oc3ccc(OC)cc23)cc1
- EC50 [1]: 0.798 µM (active)
- EC50 [2]: > 60 µM (not active)

Compound: Cc1ccc(NC(=O)CN2CCC(NC(=O)Cc3ccccc3)CC2)cc1C
- AC50 [3]: 14.1 µM (inconclusive)

Compound: CCCc1cc2c(n1Cc1ccc(C)cc1)C(C)C1CN(C(=O)c3ccccc3)C(C)(C(=O)OC)C21 (stereo not given)
- AC50 ([10]; read-out: AC50): 25.1 µM (inconclusive)

Compound: CC(C)(CN1CCN(Cc2ccccc2)CC1)NS(=O)(=O)c1ccccc1
- AC50 [9]: 12.7 µM (active)

Compound: CSc1nc2c(c(C(F)(F)F)n1)CC(C)CC2 (stereo not given)
- AC50 ([10]; read-out: AC50): 39.8 µM (inconclusive)

Compound: Cc1ccc(Cl)cc1NC(=S)N/N=C/c1cccc2ccccc12
- EC50 [1]: 2.97 µM (active)
- AC50 [9]: 0.167 µM (active)
- EC50 [2]: 0.425 µM (active)

Compound: CN([C@@H](Cc1ccc(OS(=O)(=O)c2cccc3cnccc23)cc1)C(=O)N1CCN(c2ccccc2)CC1)S(=O)(=O)c1cccc2cnccc12
- EC50 [1]: 0.4 µM (active)
- EC50 [2]: 11.2 µM (active)

Compound: Cc1ccc(S(=O)(=O)c2c(N)n(/N=C/c3ccco3)c3nc4ccccc4nc23)cc1
- EC50 [1]: 1.8 µM (active)
- EC50 [2]: > 60 µM (not active)

Compound: CC(=O)c1c(/N=C/N(C)C)nc(C)nc1-c1ccccc1
- AC50 ([10]; read-out: AC50): 25.1 µM (inconclusive)

Compound: COc1cc(/C=N/N2CCN(c3ccccc3OC)CC2)ccc1O
- IC50 [11]: 36.7 µM (active)

Compound: CCOC(=O)C1=C(c2ccccc2)NC(SCC(=O)Nc2ccc(C)cc2)=C(C#N)C1c1ccco1 (stereo not given)
- EC50 [1]: 2.91 µM (active)
- EC50 [2]: > 60 µM (not active)

Compound: Cn1cnc2c(NCc3ccccc3)nc(NCCO)nc21 [OLOMOUCINE]
- AC50 [3]: 15.8 µM (inconclusive)

Compound: CCCC(C(=O)OCCN(CC)CC)(c1ccccc1)c1ccccc1 [PROADIFEN]
- AC50 ([10]; read-out: AC50): 7.94 µM (inconclusive) and 3.98 µM (inconclusive)

From ChEMBL document CHEMBL1201862, “PubChem BioAssay data set” (2004)
